The target of the experiment is T1, Ag85CMabs (Ag85C, MAB_0175) (Mycobacteroides abscessus, UniProt B1MEL1).
T1 construct: C-terminal 6His-tag; pMyC vector, expressed in M. smegmatis delta-groEL1
The experiment is described as follows: competitive TAMRA-FP activity-based probe labelling, in-gel fluorescence. To be noted: covalent; 14 uM enzyme, 1 h preincubation, 10 mM Tris pH 8, 150 mM NaCl, 0.1% Triton X-100; catalytic Ser124. In kind it is binding.

Where only a bound is given, the exact number is not on record here.

T1 sequence (B1MEL1 entry or part of it): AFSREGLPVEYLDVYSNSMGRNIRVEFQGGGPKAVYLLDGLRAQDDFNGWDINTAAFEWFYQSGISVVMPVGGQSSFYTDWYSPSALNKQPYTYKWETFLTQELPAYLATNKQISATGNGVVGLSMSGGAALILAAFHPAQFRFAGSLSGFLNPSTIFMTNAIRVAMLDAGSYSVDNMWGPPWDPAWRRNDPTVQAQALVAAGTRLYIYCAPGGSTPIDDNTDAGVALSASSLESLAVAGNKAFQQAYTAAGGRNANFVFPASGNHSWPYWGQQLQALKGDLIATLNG

With `CC(C)COc1nn(-c2ccc(Oc3ccccc3)cc2)c(=O)o1` [iBpPPOX], the “% loss of TAMRA-FP labelling at E/I 1:75” value is reported as more than 90%.

The values above are taken from article PMC7500638, “Dissecting the antibacterial activity of oxadiazolone-core derivatives against Mycobacterium abscessus” (PLoS ONE, 2020).
